We go through twelve molecules from PubChem BioAssay (NCI).

Test in all cases: NCI anticancer screen, dose series, 48 h
For assay [1], the system named is UO-31 renal.
For assay [2], the system named is RXF 393 renal.
In assay [3] the test system is OVCAR-3 ovarian.
Assay [4] has as its system CAKI-1 renal.
The subject of assay [5] is SW-620 colon.
Assay [6] has as its system 786-0 renal.
Assay [7] deals with U251 CNS.
Assay [8] relates to NCI-H226 lung.
The test system of assay [9] is SF-268 CNS.
The test system of assay [10] is OVCAR-8 ovarian.
For assay [11], the system named is NCI-H460 lung.
The subject of assay [12] is SNB-75 CNS.
Assay [13] concerns CCRF-CEM leukemia.
The subject of assay [14] is MALME-3M melanoma.
For assay [15], the system named is SK-OV-3 ovarian.
The subject of assay [16] is MDA-N.
Assay [17] has as its system SR leukemia.
The subject of assay [18] is UACC-62 melanoma.

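Assay format: 96-well plates, 48-hour exposure. The concentration for 50% growth inhibition is given as GI50. At the TGI there is no net growth.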

Turning to `NCCCN1CCN(CC(=O)O)CCN(CCCN)CCN(CC(=O)O)CC1`, the TGI in [1] was > 100 µM; in assay [2], > 100 µM; in assay [3] it was > 100 µM; in assay [4], > 100 µM; in assay [5], > 100 µM; in assay [6], > 85.3 µM. Besides, the TGI in assay [7], in assay [8], in assay [9], in assay [10], in assay [11] and in assay [12] was > 100 µM in each case. The TGI in assay [13], in assay [14], in assay [15], in [16], in [17] and in [18] was > 100 µM throughout.

Consider `CCOC(=O)CCC(NC(=O)c1ccc(Nc2nc3ccccc3nc2-c2cccs2)cc1)C(=O)OCC` (configuration not stated), for which the TGI in assay [1], in assay [2], in [3], in assay [4], in assay [5] and in [6] was > 100 µM throughout. The TGI in [7], in assay [8], in assay [9], in [10], in assay [11] and in [12] was > 100 µM throughout. In addition, the TGI in [13], in assay [14], in assay [15], in assay [16], in assay [17] and in assay [18] was > 100 µM in each case.

`Cc1cc(C)c2c(=O)n(CN3CCC(O)(c4ccccc4)CC3)sc2n1`: the TGI in assay [1] was 33.8 µM; in [2], 37.7 µM; in assay [3], > 100 µM; in [4], > 100 µM; in [5], 69.5 µM; in assay [6], 30.8 µM. Further, the TGI in [7] was > 100 µM; in assay [8], > 100 µM; in assay [9] it was > 100 µM; in [10] it was > 100 µM; in [11] it was 95.3 µM; in assay [12] it was 50.8 µM. The TGI in assay [13] is > 100 µM; in assay [14] it was 32.9 µM; in [15], > 100 µM; in assay [16], 38.3 µM; in [17], 82.8 µM; in assay [18], > 100 µM.

As for `O=c1[nH]nc(Cc2ccc(Cl)cc2)n1/N=C\CC/C=N\n1c(Cc2ccc(Cl)cc2)n[nH]c1=O`, the TGI in assay [1] was > 100 µM; in [2], 76.1 µM; in assay [3], > 100 µM; in assay [4], > 100 µM; in assay [5], > 100 µM; in assay [6] it was > 53.5 µM. Besides, the TGI in assay [7] was 46 µM; in [8], > 71 µM; in assay [9], 37.9 µM; in assay [10], 37 µM; in assay [11], > 100 µM; in assay [12] it was 23.1 µM. For the same molecule, the TGI is > 88.9 µM in assay [13]; > 84.7 µM in assay [14]; > 100 µM in assay [15]; > 100 µM in assay [16]; 14.8 µM in assay [17]; 45.7 µM in [18].

As to `CN(C)c1ccc(/C=C(\NC(=O)c2ccccc2)C2NC(Cc3c[nH]c4ccccc34)C(=O)O2)cc1` (configuration not stated), the TGI in assay [1], in assay [2], in assay [3], in assay [4], in [5] and in assay [6] was > 100 µM each time. Also, the TGI was > 100 µM in [7]; > 100 µM in assay [8]; > 100 µM in assay [9]; > 100 µM in assay [10]; > 74.5 µM in assay [11]; > 100 µM in [12]. The TGI is > 100 µM in assay [13]; 79.6 µM in assay [14]; > 100 µM in assay [15]; > 100 µM in [16]; > 100 µM in assay [17]; > 100 µM in assay [18].

As for `O=S(CCCl)c1c2ccccc2nc2ccccc12` (configuration not stated), the TGI in assay [1] is > 100 µM; in assay [2] it was > 100 µM; in assay [3], > 100 µM; in [4], 80.5 µM; in assay [5], > 100 µM; in assay [6], > 100 µM. The TGI in [7], in assay [8], in assay [9], in assay [10], in [11] and in [12] was > 100 µM each time. Besides, the TGI in [13], in assay [14], in [15], in assay [16], in assay [17] and in assay [18] was > 100 µM in each case.

For the molecule `NS(=O)(=O)c1ccc(CNc2nc(-c3cccs3)nc3ccc(I)cc23)cc1`, the TGI in assay [1] turned out to be 4.45 µM; in assay [2] it was 43.5 µM; in assay [3], 30.1 µM; in [4], 22.8 µM; in assay [5] it was 83.8 µM; in assay [6], 37.6 µM. Besides, the TGI in assay [7] was found to be 37.7 µM; in [8], 40.1 µM; in assay [9] it was 61.6 µM; in assay [10] it was 37.7 µM; in [11] it was 29.6 µM; in assay [12], 47.1 µM. For the same molecule, the TGI in assay [13] was 59.7 µM; in assay [14] it was 27.9 µM; in [15] it was 52.6 µM; in assay [16], 41.9 µM; in [17], 42.8 µM; in assay [18] it was 31.5 µM. For the same molecule, the GI50 in assay [13] was 21.8 µM.

Turning to `CN(/N=C/C=N/N(C)C1=NCCCCN1)C1=NCCCCN1`, the TGI in [1], in [2], in assay [3], in assay [4], in assay [5] and in assay [6] was > 100 µM each time. Further, the TGI in assay [7], in assay [8], in [9], in [10], in assay [11] and in [12] was > 100 µM throughout. Moreover, the TGI in assay [13], in assay [14], in [15], in assay [16], in assay [17] and in assay [18] was > 100 µM each time.

For `COc1cc2c(c3c1c(=O)c1ccccc1n3C)C=CC1(CCCCC1)O2`, the TGI in assay [1] is 0.255 µM; in assay [2] it was 2.98 µM; in [3], > 10 µM; in [4], > 2.29 µM; in assay [5], > 10 µM; in [6], > 10 µM. Also, the TGI is > 10 µM in assay [7]; > 10 µM in assay [8]; > 10 µM in [9]; > 10 µM in [10]; > 10 µM in assay [11]; 8.46 µM in assay [12]. Also, the TGI in assay [13] is > 10 µM; in [14], > 10 µM; in [15], > 10 µM; in [16], 8.08 µM; in assay [17], 6.39 µM; in assay [18], 9.86 µM.

In the case of `CC(C)n1c2c([n+](C)c1/C=C/c1ccccc1)C(=O)c1ccccc1C2=O`, the TGI in assay [1] was found to be 10.1 µM; in assay [2] it was 2.19 µM; in assay [3] it was 0.0289 µM; in assay [4], 12.4 µM; in [5] it was 1.21 µM; in [6], 8.11 µM. Besides, the TGI in assay [7] was found to be 0.738 µM; in assay [8], 2.2 µM; in assay [9] it was 1.01 µM; in assay [10] it was 1.96 µM; in assay [11], 2.43 µM; in assay [12] it was 1.48 µM. For the same molecule, the TGI was 10.9 µM in assay [13]; 0.248 µM in [14]; 1.07 µM in assay [15]; 0.686 µM in assay [16]; > 21 µM in assay [17]; 0.644 µM in assay [18].

As to `O=C1C=C(NCCc2cc(Br)c(O)c(Br)c2)C(=O)c2ncccc21`, the TGI in [1] came to 20.2 µM; in assay [2], 13.4 µM; in [3], 6.88 µM; in [4], 17.5 µM; in assay [5] it was 8.6 µM; in [6], 13.6 µM. The TGI came out at 20 µM in assay [7]; 3.72 µM in assay [8]; 21.9 µM in assay [9]; 27.3 µM in assay [10]; 4.8 µM in [11]; 3.13 µM in assay [12]. The TGI in assay [13] is 31.4 µM; in assay [14], 2.49 µM; in assay [15], 33.4 µM; in assay [16], 1.23 µM; in assay [17] it was 7.31 µM; in assay [18] it was 2.93 µM.

As to `COc1cc([N+](=O)[O-])ccc1NC1=CC(=O)CCC1`, the TGI in assay [1], in [2], in assay [3], in assay [4], in [5] and in assay [6] was > 100 µM in each case. In addition, the TGI in assay [7], in assay [8], in assay [9], in [10], in [11] and in assay [12] was > 100 µM throughout. For the same molecule, the TGI in assay [13], in [14], in [15], in assay [16], in assay [17] and in assay [18] was > 100 µM throughout.
